Structures can show the parent of a compound that is named as a salt.
Assays:
[1] = system: Peripheral Blood Mononuclear Cells (PBMCs), TNFα release; experiment: LPS-stimulated PBMC TNFα release assay; type: cell-based; conditions: human PBMC, LPS (10 ng/ml), 18 h, compound 1 h before LPS; read-out: LPS-stimulated PBMC TNFα release inhibition
Procedure: LPS-Stimulated PBMC TNFα Release Assay
Peripheral Blood Mononuclear Cells (PBMCs) were isolated from healthy human volunteer blood using a standard density gradient centrifugation technique. Citrated blood was placed onto Histopaque™ and centrifuged. The PBMCs were removed from the density gradient interface and washed in phosphate buffered saline (PBS). The PBMCs were suspended in RPMI 1640 medium (without serum), dispensed into a 96-well plate and incubated at 37° C. for 3 h in a humidified incubator. After incubation, the medium was replaced (with medium containing 1% foetal bovine serum) and the plate incubated at 37° C., for 1 h, in the presence of test compound or the appropriate vehicle. LPS (10 ng/ml), or an appropriate vehicle control, was then added to the cells and the plate returned to the incubator for 18 h. Cell-free supernatants were removed and assayed for TNFα levels using MSD plates on the Sector Imager 6000 (MesoScale).
A dose response curve to each test compound was performed and the effect of compound in each experiment was expressed as a percentage inhibition of the control TNFα release. Dose response curves were plotted and compound potency (IC50) was determined. Compounds were tested in at least three separate experiments.

p38 alpha = target: T1, p38 alpha (Homo sapiens, UniProt Q16539); experiment: P38 alpha enzyme inhibition assay (Alphascreen kinase activity assay); type: biochemical; conditions: 100 pM p38 alpha, 2 hours preincubation at 25° C., 250 μM ATP, ATF-2 fusion protein; read-out: p38α inhibition
T1 construct: purchased Invitrogen PV3304
In short: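 Phosphorylation of ATF-2 fusion protein (0.3 μg/ml) read by AlphaScreen with anti-phospho-ATF2 antibody after 1 h kinase reaction at 25 °C, initiated by 250 μM ATP. Compounds first incubated 2 h at 25 °C with 100 pM p38 alpha in pH 7.5 HEPES buffer, 1% DMSO. IC50 derived from concentration-response data.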

T1 sequence (Q16539 whole entry, the tested form may be a part): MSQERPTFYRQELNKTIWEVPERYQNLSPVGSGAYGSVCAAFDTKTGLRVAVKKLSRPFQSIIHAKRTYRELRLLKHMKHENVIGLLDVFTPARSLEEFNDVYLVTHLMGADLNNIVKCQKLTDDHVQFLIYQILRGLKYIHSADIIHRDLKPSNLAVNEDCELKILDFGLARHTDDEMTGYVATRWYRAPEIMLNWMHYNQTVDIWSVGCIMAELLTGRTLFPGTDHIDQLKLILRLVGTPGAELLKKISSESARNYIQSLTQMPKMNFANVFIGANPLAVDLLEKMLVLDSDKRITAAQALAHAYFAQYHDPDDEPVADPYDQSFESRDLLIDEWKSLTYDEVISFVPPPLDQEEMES

IC50 (p38 alpha) [nM] | Structure (SMILES) | IC50 [1] [nM]
< 1 | CN(C)CCNC(=O)c1nc(NC(=O)N[C@H]2CC[C@@H](Oc3ccc4nnc([C@]5(C)CCCN5C)n4c3)c3ccccc32)cc(C(C)(C)C)n1 [Example 28, 4-(tert-Butyl)-N-(2-(dimethylamino)ethyl)-6-(3-((1S,4R)-4-((3-((S)-1,2-dimethylpyrrolidin-2-yl)-[1,2,4]triazolo[4,3-a]pyridin-6-yl)oxy)-1,2,3,4-tetrahydronaphthalen-1-yl)ureido)pyrimidine-2-carboxamide] | 1 to 5
< 1 | CN1CCC[C@@]1(C)c1nnc2ccc(O[C@@H]3CC[C@H](NC(=O)Nc4cc(C(C)(C)C)nc(C(=O)NCCO)n4)c4ccccc43)cn12 [Example 29, 4-(tert-Butyl)-6-(3-((1S,4R)-4-((3-((S)-1,2-dimethylpyrrolidin-2-yl)-[1,2,4]triazolo[4,3-a]pyridin-6-yl)oxy)-1,2,3,4-tetrahydronaphthalen-1-yl)ureido)-N-(2-hydroxyethyl)pyrimidine-2-carboxamide] | < 1
1 to 10 | CN1CCC[C@@]1(C)c1nnc2ccc(O[C@@H]3CC[C@H](NC(=O)Nc4cc(C(C)(C)C)nc(NS(C)(=O)=O)n4)c4ccccc43)cn12 [Example 30, N-(4-(tert-Butyl)-6-(3-((1S,4R)-4-((3-((S)-1,2-dimethylpyrrolidin-2-yl)-[1,2,4]triazolo[4,3-a]pyridin-6-yl)oxy)-1,2,3,4-tetrahydronaphthalen-1-yl)ureido)pyrimidin-2-yl)methanesulfonamide] | 1 to 5
< 1 | CN(C)CCNC(=O)c1nc(NC(=O)N[C@H]2CC[C@@H](Oc3ccc4nnc(C5(C)CC5)n4c3)c3ccccc32)cc(C(C)(C)C)n1 [Example 32, 4-(tert-Butyl)-N-(2-(dimethylamino)ethyl)-6-(3-((1S,4R)-4-((3-(1-methylcyclopropyl)-[1,2,4]triazolo[4,3-a]pyridin-6-yl)oxy)-1,2,3,4-tetrahydronaphthalen-1-yl)ureido)pyrimidine-2-carboxamide] | > 5
1 to 10 | CN(C)CCNC(=O)c1nc(NC(=O)N[C@H]2CC[C@@H](Oc3ccc4nnc([C@]5(C)CCCN5)n4c3)c3ccccc32)cc(C(C)(C)C)n1 [Example 34, 4-(tert-Butyl)-N-(2-(dimethylamino)ethyl)-6-(3-((1S,4R)-4-((3-((S)-2-methylpyrrolidin-2-yl)-[1,2,4]triazolo[4,3-a]pyridin-6-yl)oxy)-1,2,3,4-tetrahydronaphthalen-1-yl)ureido)pyrimidine-2-carboxamide] | > 5
< 1 | COc1ncc(C(C)(C)C)cc1NC(=O)N[C@H]1CC[C@@H](Oc2ccc3nnc([C@@H]4CCCN4C)n3c2)c2ccccc21 [Example 35, 1-(5-(tert-Butyl)-2-methoxypyridin-3-yl)-3-((1S,4R)-4-((3-((S)-1-methylpyrrolidin-2-yl)-[1,2,4]triazolo[4,3-a]pyridin-6-yl)oxy)-1,2,3,4-tetrahydronaphthalen-1-yl)urea hydrochloride Salt] | < 1
1 to 10 | CCOC(=O)c1nc(NC(=O)N[C@H]2CC[C@@H](Oc3ccc4nnc([C@]5(C)CCCN5C)n4c3)c3ccccc32)cc(C(C)(C)C)n1 [Example 36, Ethyl 4-(tert-butyl)-6-(3-((1S,4R)-4-((3-((S)-1,2-dimethylpyrrolidin-2-yl)-[1,2,4]triazolo[4,3-a]pyridin-6-yl)oxy)-1,2,3,4-tetrahydronaphthalen-1-yl)ureido)pyrimidine-2-carboxylate] | < 1
< 1 | C[C@H]1CCCCN1c1nnc2ccc(O[C@@H]3CC[C@H](NC(=O)Nc4cc(C(C)(C)C)nc(C(=O)NCCN(C)C)n4)c4ccccc43)cn12 [Example 37, 4-(tert-Butyl)-N-(2-(dimethylamino)ethyl)-6-(3-((1S,4R)-4-((3-((S)-2-methylpiperidin-1-yl)-[1,2,4]triazolo[4,3-a]pyridin-6-yl)oxy)-1,2,3,4-tetrahydronaphthalen-1-yl)ureido)pyrimidine-2-carboxamide] | > 5
< 1 | CNC(=O)c1nc(NC(=O)N[C@H]2CC[C@@H](Oc3ccc4nnc([C@]5(C)CCCN5C)n4c3)c3ccccc32)cc(C(C)(C)C)n1 [Example 38, 4-(tert-Butyl)-6-(3-((1S,4R)-4-((3-((S)-1,2-dimethylpyrrolidin-2-yl)-[1,2,4]triazolo[4,3-a]pyridin-6-yl)oxy)-1,2,3,4-tetrahydronaphthalen-1-yl)ureido)-N-methylpyrimidine-2-carboxamide] | < 1
1 to 10 | CN1CCC[C@]1(C)c1nnc2ccc(O[C@@H]3CC[C@H](NC(=O)Nc4cc(C(C)(C)C)cc(C#N)n4)c4ccccc43)cn12 [Example 39, 1-(4-(tert-Butyl)-6-cyanopyridin-2-yl)-3-((1S,4R)-4-((3-((R)-1,2-dimethylpyrrolidin-2-yl)-[1,2,4]triazolo[4,3-a]pyridin-6-yl)oxy)-1,2,3,4-tetrahydronaphthalen-1-yl)urea] | < 1
< 1 | Cc1nc(NC(=O)N[C@H]2CC[C@@H](Oc3ccc4nnc([C@]5(C)CCCN5C)n4c3)c3ccccc32)cc(C(C)(C)C)n1 [Example 40, 1-(6-(tert-Butyl)-2-methylpyrimidin-4-yl)-3-((1S,4R)-4-((3-((S)-1,2-dimethylpyrrolidin-2-yl)-[1,2,4]triazolo[4,3-a]pyridin-6-yl)oxy)-1,2,3,4-tetrahydronaphthalen-1-yl)urea] | 1 to 5
1 to 10 | COCc1nc(NC(=O)N[C@H]2CC[C@@H](Oc3ccc4nnc([C@]5(C)CCCN5C)n4c3)c3ccccc32)cc(C(C)(C)C)n1 [Example 43, 1-(6-(tert-Butyl)-2-(methoxymethyl)pyrimidin-4-yl)-3-((1S,4R)-4-((3-((S)-1,2-dimethylpyrrolidin-2-yl)-[1,2,4]triazolo[4,3-a]pyridin-6-yl)oxy)-1,2,3,4-tetrahydronaphthalen-1-yl)urea] | 1 to 5
< 1 | CN1CCC[C@@]1(C)c1nnc2ccc(O[C@@H]3CC[C@H](NC(=O)Nc4cc(C(C)(C)C)ccn4)c4ccccc43)cn12 [Example 44, 1-(4-(tert-Butyl)pyridin-2-yl)-3-((1S,4R)-4-((3-((S)-1,2-dimethylpyrrolidin-2-yl)-[1,2,4]triazolo[4,3-a]pyridin-6-yl)oxy)-1,2,3,4-tetrahydronaphthalen-1-yl)urea] | 1 to 5
< 1 | C[C@H]1CCCCN1c1nnc2ccc(O[C@@H]3CC[C@H](NC(=O)Nc4cc(C(C)(C)C)ncn4)c4ccccc43)cn12 [Example 45, 1-(6-(tert-Butyl)pyrimidin-4-yl)-3-((1S,4R)-4-((3-((S)-2-methylpiperidin-1-yl)-[1,2,4]triazolo[4,3-a]pyridin-6-yl)oxy)-1,2,3,4-tetrahydronaphthalen-1-yl)urea] | 1 to 5
< 1 | CN1CCC[C@H]1c1nnc2ccc(O[C@@H]3CC[C@H](NC(=O)Nc4cc(C(C)(C)C)ncn4)c4ccccc43)cn12 [Example 46, 1-(6-(tert-Butyl)pyrimidin-4-yl)-3-((1S,4R)-4-((3-((S)-1-methylpyrrolidin-2-yl)-[1,2,4]triazolo[4,3-a]pyridine-6-yl)oxy)-1,2,3,4-tetrahydronaphthalene-1-yl)urea Hydrochloride] | 1 to 5
< 1 | CC(C)N1CCC[C@H]1c1nnc2ccc(O[C@@H]3CC[C@H](NC(=O)Nc4cc(C(C)(C)C)ncn4)c4ccccc43)cn12 [Example 47, 1-(6-(tert-Butyl)pyrimidin-4-yl)-3-((1S,4R)-4-((3-((S)-1-isopropylpyrrolidin-2-yl)-[1,2,4]triazolo[4,3-a]pyridine-6-yl)oxy)-1,2,3,4-tetrahydronaphthalene-1-yl)urea Hydrochloride] | > 5
1 to 10 | CSc1nc(NC(=O)N[C@H]2CC[C@@H](Oc3ccc4nnc([C@]5(C)CCCN5C)n4c3)c3ccccc32)cc(C(C)(C)C)n1 [Example 49, 1-(6-(tert-Butyl)-2-(methylthio)pyrimidin-4-yl)-3-((1S,4R)-4-((3-((S)-1,2-dimethylpyrrolidin-2-yl)-[1,2,4]triazolo[4,3-a]pyridine-6-yl)oxy)-1,2,3,4-tetrahydronaphthalen-1-yl)urea] | > 5
< 1 | Cc1ncc(C(C)(C)C)cc1NC(=O)N[C@H]1CC[C@@H](Oc2ccc3nnc([C@]4(C)CCCN4C)n3c2)c2ccccc21 [Example 50, 1-(5-(tert-Butyl)-2-methylpyridin-3-yl)-3-((1S,4R)-4-((3-((S)-1,2-dimethylpyrrolidin-2-yl)-[1,2,4]triazolo[4,3-a]pyridin-6-yl)oxy)-1,2,3,4-tetrahydronaphthalen-1-yl)urea] | < 1
< 1 | CN1CCC[C@@]1(C)c1nnc2ccc(O[C@@H]3CC[C@H](NC(=O)Nc4cc(CO)nc(C(C)(C)C)c4)c4ccccc43)cn12 [Example 51, 1-(2-(tert-Butyl)-6-(hydroxymethyl)pyridin-4-yl)-3-((1S,4R)-4-((3-((S)-1,2-dimethylpyrrolidin-2-yl)-[1,2,4]triazolo[4,3-a]pyridin-6-yl)oxy)-1,2,3,4-tetrahydronaphthalen-1-yl)urea] | < 1

Reference: patent publication US10364245B2 (CHIESI FARMACEUTICI S.p.A., priority 2017, dated 2019)
